According to patent publication US20040077634A1, “Treatment of diseases characterized by excessive or insufficient cell death” (priority 2001, published 2004):

How the values were obtained:
[1] = tested on: DEVDase (caspase-3-like protease); assay: Inhibition of DEVDase in cytochrome c/dATP-activated Hela cytosolic extract (method 1); assay type: biochemical
Procedure: Hela cells are grown in large petri dishes until subconfluency. Cells are then harvested and washed in PBS. The cell pellet is resuspended in equal volumes of ice-cold isotonic lysisbuffer (SCA; 20 mM Hepes-KOH pH 7.5, 10 mM KCl, 1.5 mM MgCl2, 1 mM EDTA, 1 mM EGTA, 250 mM sucrose, 1 mM DTT, 10 μg/ml aprotinin, 1 μg/ml leupeptin, 1 μg/ml pepstatin A, 100 μg/ml peta-block), incubated on ice for 30 min and lysed by approx. 30 strokes of a dounce homogenizer. The lysate is then centrifuged at 750 g for 10 min, and the supernatant thereof at 10,000 g for 10 min and at 20,000 g for 30 min. The clarified supernatant is removed carefully and stored in aliquots at −80° C. Activation of endogene caspases is induced by addition of 1 mM dATP and 1 μM horse heart cytochrome c to cytosolic extract (protein concentration; 5-10 mg/ml) in the presence of DEVD-AFC and the compound (final concentration 100 μM). Activated DEVD'ases (AFC release) is measured by fluorometry in 96-well plates at 37° C. After end measurements 2× LSB-Mechaptoethanol are added to the samples for assessment of caspase processing by immunoblot analysis. Percent inhibition is calculated as follows: [formula]

recombinant caspase-9 = biological target: T1, recombinant caspase-9 (Homo sapiens, UniProt P55211); assay: Recombinant caspase-9 activity, cleavage of LEHD-AFC; assay type: biochemical; settings: 25 to 100 μM; LEHD-AFC substrate
T1 sequence (P55211 1-315 limits assumed): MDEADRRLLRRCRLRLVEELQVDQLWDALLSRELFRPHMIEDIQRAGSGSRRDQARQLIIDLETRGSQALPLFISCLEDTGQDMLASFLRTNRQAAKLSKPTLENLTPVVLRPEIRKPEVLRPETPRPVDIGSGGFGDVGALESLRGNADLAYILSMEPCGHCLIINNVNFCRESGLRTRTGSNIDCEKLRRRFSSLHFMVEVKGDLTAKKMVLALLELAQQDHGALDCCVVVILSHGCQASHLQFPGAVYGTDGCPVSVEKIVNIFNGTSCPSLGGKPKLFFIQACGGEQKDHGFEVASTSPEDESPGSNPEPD
T1 sequence (P55211 331-416 limits assumed): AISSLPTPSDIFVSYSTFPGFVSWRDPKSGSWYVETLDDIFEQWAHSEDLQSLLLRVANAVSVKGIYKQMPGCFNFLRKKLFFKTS
Procedure: The inhibition of the DEVDase activity in the in vitro caspase activation system could be due to a direct inhibition of caspase-9, -3, or -7 activities, or to the inhibition of the apoptosome formation. To test if compounds a, f, and g were specific caspase inhibitors, recombinant caspase-3 and caspase-9 were incubated with the three compounds and the enzymatic activities of caspases were monitored by analysing the cleavage of the caspase-3 substrate DEVD-AFC or the caspase-9 substrate LEHD-AFC, respectively.

[2] = tested on: caspase-9, caspase-3 and caspase-7 processing; DFF45/ICAD and PARP cleavage; assay: Processing of caspases and caspase substrates in Cc/dATP-stimulated cell extract, Western blotting; assay type: biochemical
Procedure: Activation of endogene caspases is induced by addition of 1 mM dATP and 1 μM horse heart cytochrome c to cytosolic extract (protein concentration; 5-10 mg/ml) in the presence of DEVD-AFC and the compound (final concentration 100 μM). Activated DEVD'ases (AFC release) is measured by fluorometry in 96-well plates at 37° C. After end measurements 2× LSB-Mechaptoethanol are added to the samples for assessment of caspase processing by immunoblot analysis.
Next, the effect of the compounds on the processing of caspases and caspase substrates in the in vitro model system was analysed by Western blotting. Caspase-9, caspase-3 and caspase-7 were processed into p35, p17, and p20 active fragments, respectively, in response to Cc/dATP. Accordingly, Cc/dATP induced a threefold induction in DEVDase activity and cleavage of the caspase-3 substrates DFF45/ICAD and PARP.

MCF-neo cells = assay: TNF-induced cell death of MCF-neo cells; assay type: cell-based
Procedure: (§1) The ability of compound f to inhibit cell death was examined in MCF-neo and MCF-casp3 cells. […] To analyse the mechanism of the action of compound f in alive cells, MCF-casp3 cells were treated with TNF (5 ng/ml) in the presence of 50 μM compound f and the activity of caspase-3-like proteases was measured by a DEVDase enzyme assay.

[3] = tested on: caspase-3-like proteases in MCF-casp3 cells; assay: TNF-induced DEVDase activity in MCF-casp3 cells; assay type: cell-based; settings: TNF 5 ng/ml, 50 μM
Procedure: as §1

[4] = tested on: WEHI-S fibrosarcoma cells; assay: TNF-induced caspase-independent cell death of WEHI-S fibrosarcoma cells; assay type: cell-based; settings: 50-10 μM
MCF-casp3 cells = assay: TNF-induced cell death of MCF-casp3 cells
Procedure: as §1

SMILES: O=C(Nc1cccc(C(F)(F)F)c1)Nc1cc(Cl)ccc1C(=O)O [Compound f, [N-(2-Carboxy-5-chlorophenyl)-N′-(3-trifluoromethylphenyl)]urea]
- inhibition of the DEVDase activity (dose dependence) ([1]; cell extracts stimulated with Cc/dATP): dose-dependent inhibition
- % Inhibition ([1]; compound final concentration 100 μM, 1 mM dATP and 1 μM cytochrome c, DEVD-AFC): 94%
- inhibition of recombinant caspase-9 activity (recombinant caspase-9): failed to inhibit
- processing of caspase-9 ([2]; 10 μM, compared with the vehicle control): slightly more procaspase-9 remained unprocessed
- processing of caspase-9 ([2]; 100 μM): almost completely inhibited
- inhibition of caspase-9, -3 and -7 processing and DFF45/ICAD and PARP cleavage ([2]; cell extracts stimulated with Cc/dATP, Western blot, dose dependence): dose-dependent inhibition
- cell death induced by TNF (MCF-neo cells; 1 ng/ml TNF, 50 μM): completely blocked
- protection against TNF-induced cell death (MCF-neo cells; 5 ng/ml TNF, 50 μM): protection was still significant
- inhibition of TNF-induced cell death (MCF-neo cells; 10 ng/ml TNF): no inhibition
- TNF-induced DEVDase activity [3]: significantly reduced
- inhibition of the TNF-induced cell death [4]: No inhibition
- cell death induced by TNF (MCF-casp3 cells; 1 ng/ml TNF, 50 μM): completely blocked
- protection against TNF-induced cell death (MCF-casp3 cells; 5 ng/ml TNF, 50 μM): protection was still significant
- inhibition of TNF-induced cell death (MCF-casp3 cells; 10 ng/ml TNF): no inhibition
